Laboratory results as given in patent publication US20200268832A1, “COMPOSITIONS FOR DELIVERY TO AND TREATMENT OF ATHEROSCLEROTIC PLAQUES” (Sanford Burnham Prebys Medical Discovery Institute, priority 2015, published 2020).
Where a SMILES comes first, the peptide text is derived from it. Bridges are numbered along the chain shown (N, C = ends).

Molecular target: T1, p32 protein (Homo sapiens, UniProt Q07021)
T1 construct: 6xHis; host or cells: Rosetta-gami-2 cells (Novagen); an E. coli strain by own knowledge
T1 sequence (Q07021 74-282): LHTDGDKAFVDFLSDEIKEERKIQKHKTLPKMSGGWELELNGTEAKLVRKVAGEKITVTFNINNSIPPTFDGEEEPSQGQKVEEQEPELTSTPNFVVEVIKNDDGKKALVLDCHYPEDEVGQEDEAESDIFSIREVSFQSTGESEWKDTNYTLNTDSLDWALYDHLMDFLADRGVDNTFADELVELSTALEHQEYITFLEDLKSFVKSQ
Experiment: Fluorescence polarization binding of FAM-labeled peptides to p32 (KD)
Conditions: affinity of binding to p32
Description: FIGS. 2A-2D are graphs showing FP- and phage binding-based validation of p32 binding peptides and hit compounds. […] Measurements were performed with PheraStar FS plate reader (BMG Labtech, Ortenberg, Germany) on 384-well plate. (B) Affinity of the 7 hit compounds in dose-dependent (8.25 μM to 100 μM) inhibition of FAM-TT1 binding to p32 in FP assay. (C) Assessment of hit compound binding to a non-target secondary protein, NRP-1, to determine the specificity of the hit compounds in FP assay. A known NRP-1 binding peptide, RPARPAR (SEQ ID NO:18), was used as a control. (D) Effect of the hit compounds on the TT1 phage binding to p32 protein. TT1 phage binding to p32 in the presence of 100 μM hit compounds was determined in ELISA-type of binding assay. Each data point presents average±S.D., n=4.
FIG. 6 is a graph showing the effect of buffer solution on interaction of TT1 and p32. […] The binding was measured by fluorescence polarization (FP) and observed as increased FP value. Binding constants (KD) were calculated by fitting the binding curves into Michaelis-Menten kinetics. […]
Fluorescence polarization (FP)-based assay was used for solution-based screening of compound libraries for p32 binding compounds. […] The protein was purified by IMAC using HIS-select resin (Sigma) with an imidizole gradient from 20-300 mM and eluted fractions were analyzed on analytical SDS-PAGE. […]

C[C@@H]1NC(=O)CNC(=O)[C@H](CCCNC(=N)N)NC(=O)[C@H](CCCCN)NC(=O)[C@@H](N)CSSC[C@@H](C(=O)O)NC(=O)[C@H]([C@@H](C)O)NC(=O)[C@H](CO)NC(=O)[C@H](CCCNC(=N)N)NC1=O [TT1, CKRGARSTC] (H-CKRGARSTC-OH; disulfide 1-9)
Kd: 2300 nM
